Each structure is given as a SMILES string.

For assay [1], the system named is flavonol 8-hydroxylase (MFB088 crude enzyme). The assay is described as follows: Hydroxylase activity of MFB088 crude enzyme on flavonoid substrates (UPLC-TOF MS, ion trap MS/MS). Particulars: 0.048 nmol substrate, FAD, NADPH, pH 7.0, 30° C., 15 minutes; product detected by UPLC-TOF MS / ion trap MS/MS; not detected in negative control. It counts as biochemical, Lotus japonicus. How it is done:
The yeast cells were centrifuged and recovered, and then lysed using glass beads. The lysate was centrifuged at 8000×g for 10 minutes. The supernatant was recovered and further centrifuged at 15000×g for 10 minutes to give the crude enzyme fraction of the protein encoded by MFB088 (hereinafter referred to as the MFB088 crude enzyme).
MFB088 crude enzyme solution, 2 μl (containing 2.5 μg of proteins); 0.1 M KH2PO4/K2HPO4 solution (containing 0.4% ascorbic acid: pH 7.0), 88 μl; 0.048 nmol eriodictyol/5 […] of H2O; 0.001 nmol FAD and 0.48 nmol NADPH/5 μl of H2O.
NADPH was added to start the reaction. After the reaction proceeded at 30° C. for 15 minutes, 10 μl of glacial acetic acid was added to stop the reaction. An […] was further added to extract the phenol compound twice (the added […]: 70 μl and 50 μl). The organic layer was recovered and used as a sample (hereinafter referred to as “MFB088 crude enzyme reaction product”). The components were analyzed by UPLC-TOF MS and ion trap MS/MS.
For analysis of the MFB088 crude enzyme reaction product, Waters Acquity UPLC™ system (Waters Corporation) equipped with time-of-flight mass spectrometer LCT Premier (Waters Corporation, Massachusetts, USA) was used. The analysis was performed using an ACQUITY UPLC™ BEH C18 column (particle diameter of 1.7 μm, column size of 2.1 mm I.D.×100 mm, Waters Corporation) under the conditions of flow rate of 0.3 ml/min and column temperature at 40° C. Using solvent A (0.1% formic acid-acetonitrile) and solvent B (0.1% formic acid aqueous solution), the reaction product was eluted by linear gradient from 70% B in 0 minute to 70% A in 20 minutes. The reaction product was detected by the time-of-flight mass spectrometer in the cation detection mode set forth below: capillary voltage of 2500 V, sample cone of 100 V, desolvation temperature at 250° C., source temperature at 120° C., and nitrogen gas flow of 6001/hour.
The components of the MFB088 crude enzyme reaction product was analyzed by ion trap MS/MS. High performance liquid chromatography (HPLC) system Agilent 1200 series (Agilent Technologies, California, USA) equipped with ion trap mass spectrometer LTQ XL (Thermo Fisher Scientific, Massachusetts, USA) was used for the MS/MS analysis. HPLC was performed using a TSKgel ODS-80™ column (particle diameter of 5 μm, column size of 4.6 mm I.D.×150 mm, TOSOH, Japan) under the conditions of flow rate of 0.5 ml/min and column temperature at 40° C. Using solvent A (0.1% formic acid-acetonitrile) and solvent B (0.1% formic acid aqueous solution), the reaction product was eluted by linear gradient from 70% B in 0 minute to 85% A in 30 minutes. The reaction product was ionized by electrospray ionization method and cations were detected under the following conditions: spray voltage of 4.0 kV, capillary temperature at 300° C., nitrogen sheath of 40 units, and auxiliary gas of 15 units. In the MS/MS analysis of the reaction product [M+H]+, collision-induced dissociation (CID) was performed under the conditions below to detect the fragment peak: normalized collision energy of 35, activation Q of 0.25 and activation time for 30 ms.
MFB088 crude enzyme solution, 2 μl (containing 2.5 μg of proteins); 0.1 M KH2PO4/K2HPO4 solution (containing 0.4% ascorbic acid: pH 7.0), 88 μl; 0.048 nmoleriodictyol/5 μl of H2O; 0.001 nmol FAD and 0.48 nmol NADPH/5 μl of H2O.
MFB088 crude enzyme solution, 2 μl (containing 2.5 μg of protein); 0.1 M KH2PO4/K2HPO4 solution (containing 0.4% ascorbic acid: pH 7.0), 88 μl; 0.048 nmol luteolin/5 μl of H2O; 0.001 nmol FAD and 0.48 nmol NADPH/5 μl of H2O.
The reactivity requiring kaempferol and apigenin as substrates was analyzed. The reaction product was recovered in a manner similar to EXAMPLES described above and the components were analyzed by UPLC-TOF MS.

Assay [2] relates to low density lipoprotein receptor (LDLR). Particulars: through activation of extracellular signal-regulated kinase (ERK); cited from earlier work.
For assay [3], the system named is nuclear factor-κB (NF-κB). Particulars: leading to cell apoptosis potentiation; cited from earlier work.

Consider `O=C1C[C@@H](c2ccc(O)cc2)Oc2cc(O)cc(O)c21` [naringenin], for which the “hydroxylation of substrate by the MFB088 crude enzyme” value (from here on “hydroxylation of substrate”) in assay [1] is recorded as “two hydroxyl groups were attached”.

In the case of `O=c1c(O)c(-c2ccc(O)c(O)c2)oc2cc(O)cc(O)c12` [quercetin], the “hydroxylation of substrate” value in assay [1] is “substituted with hydroxyl group at position 8 and converted into gossypetin”.

For `O=c1c(O)c(-c2ccc(O)c(O)c2)oc2c(O[C@@H]3O[C@H](CO)[C@@H](O)[C@H](O)[C@H]3O)c(O)cc(O)c12` [gossypin, gossypetin-8-glucoside], the “effect on LDLR” value in assay [2] is “upregulates low density lipoprotein receptor (LDLR)”. Also, the “effect on activation of NF-κB” value in assay [3] was “inhibits the activation of nuclear factor-κB (NF-κB)”.

With `O=c1cc(-c2ccc(O)cc2)oc2cc(O)cc(O)c12` [apigenin], the “hydroxylation of substrate” value in assay [1] was “hydroxyl group is attached to apigenin”.

On to `O=c1cc(-c2ccc(O)c(O)c2)oc2cc(O)cc(O)c12` [luteolin], for which the “hydroxylation of substrate” value in assay [1] is given as “hydroxyl group is attached to luteolin”.

Consider `O=c1c(O)c(-c2ccc(O)cc2)oc2cc(O)cc(O)c12` [kaempferol], for which the “hydroxylation of substrate” value in assay [1] is “hydroxyl group is attached to kaempferol at position 8”.

With `O=C1C[C@@H](c2ccc(O)c(O)c2)Oc2cc(O)cc(O)c21` [eriodictyol], the “hydroxylation of substrate” value in assay [1] is on record as “hydroxyl-substituted”.

Turning to `O=C1c2c(O)cc(O)cc2O[C@H](c2ccc(O)c(O)c2)[C@H]1O` [dihydroquercetin], the “hydroxylation of substrate” value in assay [1] is given as “two hydroxyl groups were attached”.

The values are drawn from patent US20130145496A1, “FLAVIN ENZYME HAVING FLAVONOL 8-HYDROXYLASE ACTIVITY AND USE THEREOF” (SUNTORY HOLDINGS LIMITED, priority 2010, published 2013).
